Patent EP0330025A2, “Antidiabetic composition comprising isocarbacyclin derivative” (TEIJIN LIMITED, priority 1988, dated 1989)

Columns and labels:
[1] = system: GK rats with spontaneous diabetes; assay: Test Example 2: measurement of nerve conduction velocity in GK rats with spontaneous diabetes; type: in vivo; conditions: for Nerve conduction velocity (m/sec) Before administration / Nerve conduction velocity (m/sec) 4 weeks later: GK rats; for Nerve conduction velocity (m/sec) Before administration: baseline before oral administration
Experimental: (§1) At the test method was to use four groups, i.e., one group of Wistar rats as control, two groups of GK rats with spontaneous diabetes administered by the test substance and one group of the GK rats not administered by the test substance. Before testing, glucose tolerance and nerve conduction velocity were measured. Then the test substance was orally given for 4 weeks (one group at a dose of 30µg/-Kg/day and another group at a dose of 300µg/Kg/day), and the animals were then checked for glucose tolerance and nerve conduction velocity.
In similar way to Test Example 1, variations in nerve conduction velocity were measured for (17S)-17,20-dimethylisocarbacyclin methyl ester [=(17S)-17,20-dimethyl-9(0)-methano-Δ^6(9α)-prostaglandin I₁ methyl ester as test substance.

[2] = system: GK rats with spontaneous diabetes; assay: Test Example 1: measurement of nerve conduction velocity in GK rats with spontaneous diabetes; type: in vivo; conditions: for Nerve conduction velocity (m/sec) Before administration: baseline before oral administration
Description: A test substance, (17S)-17,20-dimethylisocarbacyclin [=(17S)-17,20-dimethyl-9(0)-methano-Δ^6(9α)-prostaglandin I₁] was used to observe any improvement effect on nervous disorder of GK rats with spontaneous diabetes.
as §1

[3] = 300µg/Kg/day orally for 4 weeks

CCCC[C@H](C)C[C@H](O)/C=C/[C@@H]1[C@H]2CC(CCCCC(=O)OC)=C[C@H]2C[C@H]1O [(17S)-17,20-dimethyl-9(0)-methano-Δ^6(9α)-prostaglandin I₁ methyl ester]
Nerve conduction velocity (m/sec) Before administration ([1]; 30µg/Kg/day group): 30.9 ± 1.0 m/sec | Nerve conduction velocity (m/sec) 4 weeks later ([1]; 30µg/Kg/day orally for 4 weeks): 38.1 ± 1.0 m/sec | Nerve conduction velocity (m/sec) Before administration ([1]; 300µg/Kg/day group): 32.4 ± 0.7 m/sec | Nerve conduction velocity (m/sec) 4 weeks later [1, 3]: 37.5 ± 1.4 m/sec | Improvements on nerve conduction velocity ([1]; both groups, 30µg/Kg/day and 300µg/Kg/day, after 4 weeks, in comparison with the control group of GK rats): Improvements on nerve conduction velocity were observed

CCCC[C@H](C)C[C@H](O)/C=C/[C@@H]1[C@H]2CC(CCCCC(=O)O)=C[C@H]2C[C@H]1O [(17S)-17,20-dimethylisocarbacyclin, (17S)-17,20-dimethyl-9(0)-methano-Δ^6(9α)-prostaglandin I₁]
Nerve conduction velocity (m/sec) Before administration ([2]; 30µg/Kg/day group): 33.7 ± 1.2 m/sec | Nerve conduction velocity (m/sec) 4 weeks later ([2]; 30µg/Kg/day orally for 4 weeks): 40.5 ± 0.8 m/sec | Nerve conduction velocity (m/sec) Before administration ([2]; 300µg/Kg/day group): 35.0 ± 0.8 m/sec | Nerve conduction velocity (m/sec) 4 weeks later [2, 3]: 42.2 ± 0.9 m/sec
